Assay results published in ChEMBL document CHEMBL1201862, “PubChem BioAssay data set” (2004).
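A five-concentration, 48-hour dose response in 96-well plates underlies each endpoint, interpolated linearly between surrounding concentrations. GI50 is the concentration that inhibits growth by half.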 The source made the active and inactive calls. Rule as the data show it: active = GI50 up to about 1.1 µM and inactive = higher.

What was measured:
Assay in all cases: NCI-60 cell line screen, 48 h
U-251 = tested on: U-251
ACHN = tested on: ACHN
786-0 = tested on: 786-0
EKVX = tested on: EKVX
BT-549 = tested on: BT-549
NCI/ADR-RES = tested on: NCI/ADR-RES
SNB-19 = tested on: SNB-19
SR = tested on: SR
UACC-257 = tested on: UACC-257
Malme-3M = tested on: Malme-3M
MCF7 = tested on: MCF7
IGROV-1 = tested on: IGROV-1
PC-3 = tested on: PC-3
OVCAR-4 = tested on: OVCAR-4
MDA-MB-231 = tested on: MDA-MB-231
UO-31 = tested on: UO-31
NCI-H522 = tested on: NCI-H522
SK-MEL-28 = tested on: SK-MEL-28
LOX IMVI = tested on: LOX IMVI
OVCAR-5 = tested on: OVCAR-5

Compound	GI50 (U-251)	GI50 (ACHN)	GI50 (786-0)	GI50 (EKVX)	GI50 (BT-549)	GI50 (NCI/ADR-RES)	GI50 (SNB-19)	GI50 (SR)	GI50 (UACC-257)	GI50 (Malme-3M)	GI50 (MCF7)	GI50 (IGROV-1)	GI50 (PC-3)	GI50 (OVCAR-4)	GI50 (MDA-MB-231)	GI50 (UO-31)	GI50 (NCI-H522)	GI50 (SK-MEL-28)	GI50 (LOX IMVI)	GI50 (OVCAR-5)
CSC1SCC2C(=O)N(C)C3(CC3C)C(=O)OCC(NC(=O)c3nc4ccccc4cc3O)C(=O)NC(C)C(=O)N(C)C1C(=O)N(C)C1(CC1C)C(=O)OCC(NC(=O)c1nc3ccccc3cc1O)C(=O)NC(C)C(=O)N2C (stereo not given)	< 0.0001 µM (active)	< 0.0001 µM (active)	< 0.0001 µM (active)	0.1 µM (active)	< 0.01 µM (active)	0.176 µM (active)	< 0.0001 µM (active)	< 0.0001 µM (active)	0.1 µM (active)	< 0.0001 µM (active)	< 0.0001 µM (active)	< 0.0001 µM (active)	< 0.0001 µM (active)	< 0.0001 µM (active)	< 0.0001 µM (active)	0.000449 µM (active)	< 0.01 µM (active)	< 0.0001 µM (active)	< 0.0001 µM (active)	< 0.0001 µM (active)
Nc1ccc2c(c1)NCCN2	22.9 µM (inactive)	6.53 µM (inactive)	> 100 µM (inactive)	54.1 µM (inactive)	37.2 µM (inactive)	> 100 µM (inactive)	9.84 µM (inactive)	1.69 µM (inactive)	82 µM (inactive)	51.4 µM (inactive)	4.53 µM (inactive)	8.36 µM (inactive)	> 100 µM (inactive)	> 100 µM (inactive)	> 100 µM (inactive)	17.4 µM (inactive)	7.64 µM (inactive)	> 100 µM (inactive)	8.05 µM (inactive)	> 100 µM (inactive)
COc1ccc(/C=C/C(=O)c2ccccc2)cc1OC	9.59 µM (inactive)	15.5 µM (inactive)	4.97 µM (inactive)	14.8 µM (inactive)	18.2 µM (inactive)	21.2 µM (inactive)	11.2 µM (inactive)	3.15 µM (inactive)	17.3 µM (inactive)	16.7 µM (inactive)	2.52 µM (inactive)	17.2 µM (inactive)	11.3 µM (inactive)	16.7 µM (inactive)	19.5 µM (inactive)	13.3 µM (inactive)	6.85 µM (inactive)	21.1 µM (inactive)	5.46 µM (inactive)	16.9 µM (inactive)
O=C1C=CC(=O)c2ncccc21	3.18 µM (inactive)	2.63 µM (inactive)	2.71 µM (inactive)	3.37 µM (inactive)	4.45 µM (inactive)	11.3 µM (inactive)	6.17 µM (inactive)	0.597 µM (active)	5.05 µM (inactive)	3.84 µM (inactive)	4.42 µM (inactive)	5.07 µM (inactive)	9.82 µM (inactive)	5.16 µM (inactive)	2.47 µM (inactive)	4.43 µM (inactive)	1.89 µM (inactive)	3.46 µM (inactive)	2.09 µM (inactive)	17.5 µM (inactive)
COc1ccc(-c2nc3c(C(=O)NCCN(C)C)cccc3c3ccccc23)cc1	2.86 µM (inactive)	3.25 µM (inactive)	2.49 µM (inactive)	6.78 µM (inactive)	10.5 µM (inactive)	7.31 µM (inactive)	3.42 µM (inactive)	2.43 µM (inactive)	1.89 µM (inactive)	4.3 µM (inactive)	2.46 µM (inactive)	3.47 µM (inactive)	3.73 µM (inactive)	2.81 µM (inactive)	3.45 µM (inactive)	1.16 µM (inactive)	2.65 µM (inactive)	1.97 µM (inactive)	1.5 µM (inactive)	3.95 µM (inactive)
O=C1c2c(F)c(F)c(F)c(F)c2SC2=Nc3cccc4cccc(c34)N12	3.78 µM (inactive)	7.05 µM (inactive)	5.51 µM (inactive)	9.79 µM (inactive)	10.9 µM (inactive)	2.77 µM (inactive)	8.09 µM (inactive)	2.13 µM (inactive)	5.19 µM (inactive)	3.48 µM (inactive)	3.78 µM (inactive)	11.4 µM (inactive)	5.68 µM (inactive)	3.49 µM (inactive)	3.24 µM (inactive)	9.16 µM (inactive)	2.54 µM (inactive)	4.27 µM (inactive)	2.77 µM (inactive)	16.1 µM (inactive)
O=C1NC(=S)NC(=O)C1=C(O)Nc1ccccc1	27.5 µM (inactive)	23.6 µM (inactive)	28.1 µM (inactive)	35.7 µM (inactive)	12.1 µM (inactive)	30.5 µM (inactive)	25.8 µM (inactive)	12.8 µM (inactive)	38.1 µM (inactive)	25.8 µM (inactive)	19.1 µM (inactive)	32 µM (inactive)	15 µM (inactive)	34.6 µM (inactive)	31.8 µM (inactive)	26.5 µM (inactive)	21.7 µM (inactive)	47.9 µM (inactive)	23.3 µM (inactive)	47.2 µM (inactive)
S=C1NC(c2ccccc2)NC(c2ccccc2)S1 (stereo not given)	39.4 µM (inactive)	> 100 µM (inactive)	> 100 µM (inactive)	> 100 µM (inactive)	> 100 µM (inactive)	> 100 µM (inactive)	55.5 µM (inactive)	> 100 µM (inactive)	34.6 µM (inactive)	> 100 µM (inactive)	28.2 µM (inactive)	> 100 µM (inactive)	> 100 µM (inactive)	> 100 µM (inactive)	> 100 µM (inactive)	> 100 µM (inactive)	41.6 µM (inactive)	> 100 µM (inactive)	78.9 µM (inactive)	> 100 µM (inactive)
CC12CCCCC1=C(F)C(F)(F)S2 (stereo not given)	98.6 µM (inactive)	22.1 µM (inactive)	20.8 µM (inactive)	> 78.7 µM (inactive)	19.1 µM (inactive)	40.1 µM (inactive)	> 100 µM (inactive)	15 µM (inactive)	20.1 µM (inactive)	24.4 µM (inactive)	34.4 µM (inactive)	> 71.9 µM (inactive)	40.7 µM (inactive)	48.3 µM (inactive)	83.9 µM (inactive)	15 µM (inactive)	21.5 µM (inactive)	28 µM (inactive)	31.8 µM (inactive)	62.5 µM (inactive)
COC(=O)C(Cc1ccccc1)NS(=O)(=O)c1ccc(-c2c3nc(c(-c4ccc(S(=O)(=O)NC(Cc5ccccc5)C(=O)OC)cc4)c4ccc([nH]4)c(-c4ccc(S(=O)(=O)NC(Cc5ccccc5)C(=O)OC)cc4)c4nc(c(-c5ccc(S(=O)(=O)NC(Cc6ccccc6)C(=O)OC)cc5)c5ccc2[nH]5)C=C4)C=C3)cc1 (stereo not given)	28.1 µM (inactive)	> 100 µM (inactive)	53.6 µM (inactive)	> 100 µM (inactive)	> 100 µM (inactive)	> 100 µM (inactive)	40.9 µM (inactive)	> 100 µM (inactive)	> 100 µM (inactive)	> 100 µM (inactive)	> 100 µM (inactive)	> 100 µM (inactive)	> 100 µM (inactive)	> 100 µM (inactive)	> 100 µM (inactive)	> 100 µM (inactive)	> 100 µM (inactive)	> 100 µM (inactive)	> 100 µM (inactive)	> 100 µM (inactive)
